Values quoted from earlier work, collected in article PMC11913096, “MBX 2109, A Once-Weekly Parathyroid Hormone Replacement Therapy Prodrug: Phase 1, First-In-Human, Randomized Trial” (The Journal of Clinical Endocrinology and Metabolism, 2024).
Where no end group is shown, it is not given here.

Legend:
patients with hypoPT = conditions: once-daily, placebo 5%
Method: (§1) Because PTH deficiency is the etiology for chronic hypoPT, hormone replacement therapy with PTH would be the ideal treatment ([1], [2]). However, the short half-lives (t1/2) of unmodified PTH(1-34) and PTH(1-84) peptides necessitate frequent administration to normalize serum calcium levels ([2]). For example, twice-daily subcutaneous (SC) injection of teriparatide, a recombinant PTH(1-34) analogue with a short half-life (∼1 hour) ([2]), was more efficacious than once-daily administration in normalizing serum calcium and reducing hypercalciuria in patients with hypoPT ([9]). Continuous SC (pump ...

[1] = Method: as §1

| Substance | Patients achieving composite primary end point (normalizing serum calcium and eliminating active vitamin D and calcium supplements) (patients with hypoPT) | Half-life [1] |
| --- | --- | --- |
| palopegteriparatide (SVSEIQLMHNLGKHLNSMERVEWLRKKLQDVHNF; also: methoxy-PEG carrier prodrug, attachment not given here; UniProt P01270 32-65, looked up, fragment) [prodrug of PTH(1-34) conjugated to a methoxypolyethylene glycol (PEG) carrier] | 79% | – |
| teriparatide | – | ~1 h |
